Data on one compound can be found in ChEMBL document CHEMBL1782038, “Heterocyclic replacement of the central phenyl core of diamine-based histamine H3 receptor antagonists” (Eur J Med Chem, 2009).

Data set [1] is described as follows: in vivo. As to conditions: Sprague-Dawley, rat, iv, 1 mg/kg.
Data set [2] in a line: in vivo. As to conditions: Sprague-Dawley, rat, po, 10 mg/kg.
Data set [3] can be described thus: in vivo. To be noted: Sprague-Dawley, rat, po, 10 mg/kg. The source holds these as a separate data set.
Data set [4] is described as follows: in vivo. To be noted: Sprague-Dawley, rat, iv, 1 mg/kg. This is another data set of the same source.
A short description of data set [5]: in vivo. To be noted: Sprague-Dawley, rat, po, 10 mg/kg. The source holds these as a separate data set.
Data set [6] can be described thus: in vivo. As to conditions: Sprague-Dawley, rat, iv, 1 mg/kg. This is another data set of the same source.
Data set [7] can be described thus: in vivo. To be noted: Sprague-Dawley, rat, po, 10 mg/kg. This is another data set of the same source.
For a further data set, the species on record is Rattus norvegicus. As to conditions: in vivo, po, 10 mg/kg.

Broadly, the half-life is the time needed for the level to fall by half in the phase considered. As usually defined, the bioavailability is dose-corrected exposure relative to a reference, in per cent. Usually Tmax stands for the time from dosing to the highest level. As a reminder, the Vd is the apparent volume that relates the amount in the body to the concentration in plasma or blood. A low value points to confinement near the circulation. As usually defined, the clearance is the rate of elimination divided by the concentration. In general, CL/F refers to clearance divided by bioavailability, as obtained after extravascular dosing. As for `CC(C)N1CCN(C(=O)c2ccc(CN3CCCCC3)cc2)CC1`, the half-life in “in vivo [1]” is 13.8 h; in “in vivo [5]”, 33.6 h. Besides, the bioavailability in “in vivo [2]” came out at 54%. Moreover, the time to peak (Tmax) in the data set “in vivo [3]” was determined as 1.7 h. This compound also displayed a Vd in “in vivo [4]” of 10.6 L. Moreover, in “in vivo [6]”, the clearance was 9.67 mL/min. Moreover, the CL/F in the data set “in vivo [7]” is 18.3 mL/min. In addition, in the data set listed under Rattus norvegicus, the Vz came to 41.1 L.
